In patent US7671061B2, “Methods and compositions for treating pain” (Hydra Biosciences, Inc., priority 2005, dated 2010) one finds IC50 data, which are given here for 64 compounds.

The structures appear in SMILES notation.

In the first test the target is T1, hTRPA1 (Homo sapiens, UniProt O75762, K186N).
T1 construct: expressed in transfected cells; host or cells: HEK293/TREx (Invitrogen), induced with tetracycline
T1 sequence (O75762 whole entry K186N): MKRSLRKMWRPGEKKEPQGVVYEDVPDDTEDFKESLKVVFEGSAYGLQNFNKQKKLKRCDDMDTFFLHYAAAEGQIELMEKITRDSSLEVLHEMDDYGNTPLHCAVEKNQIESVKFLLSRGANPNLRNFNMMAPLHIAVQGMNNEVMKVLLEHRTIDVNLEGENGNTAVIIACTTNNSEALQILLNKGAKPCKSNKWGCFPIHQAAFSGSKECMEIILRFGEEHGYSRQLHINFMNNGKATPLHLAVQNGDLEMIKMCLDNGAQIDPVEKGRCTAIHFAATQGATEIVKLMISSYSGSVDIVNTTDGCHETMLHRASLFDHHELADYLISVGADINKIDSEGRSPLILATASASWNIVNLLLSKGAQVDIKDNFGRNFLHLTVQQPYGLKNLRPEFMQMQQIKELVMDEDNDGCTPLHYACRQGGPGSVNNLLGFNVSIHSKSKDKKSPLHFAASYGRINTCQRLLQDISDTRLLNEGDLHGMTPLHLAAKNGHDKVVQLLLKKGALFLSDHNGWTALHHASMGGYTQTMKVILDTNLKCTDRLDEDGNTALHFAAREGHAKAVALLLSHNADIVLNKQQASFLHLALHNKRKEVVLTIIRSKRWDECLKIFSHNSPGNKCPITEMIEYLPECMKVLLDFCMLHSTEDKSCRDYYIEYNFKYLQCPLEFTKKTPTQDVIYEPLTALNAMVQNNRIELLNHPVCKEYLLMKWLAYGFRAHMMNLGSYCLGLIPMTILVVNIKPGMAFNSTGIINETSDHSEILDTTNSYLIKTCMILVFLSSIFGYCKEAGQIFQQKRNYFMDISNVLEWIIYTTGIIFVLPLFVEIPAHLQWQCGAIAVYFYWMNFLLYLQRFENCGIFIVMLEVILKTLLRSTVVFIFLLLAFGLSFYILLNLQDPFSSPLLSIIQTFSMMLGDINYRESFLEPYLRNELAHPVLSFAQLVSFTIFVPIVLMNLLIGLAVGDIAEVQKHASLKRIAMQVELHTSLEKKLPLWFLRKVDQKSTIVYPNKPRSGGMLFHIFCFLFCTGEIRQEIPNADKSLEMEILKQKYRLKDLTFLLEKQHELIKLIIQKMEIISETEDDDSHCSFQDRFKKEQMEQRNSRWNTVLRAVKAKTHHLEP
Briefly: High throughput Ca2+ fluorescence (Fluo4) assay, AITC stimulation. Format: cell-based. The note with it: Table 1; read-out: hTRPA1 Fluo4 IC50. The source says: The assay depended on detection of the rise in intracellular Ca^2+ concentration ([Ca^2+]i) following channel activation in cells inducibly expressing the TRPA1 channel. Ca^2+ rise was quantified with the use of fluorescent Ca^2+ indicators that were loaded into cells and thereafter indicated the [Ca^2+]i. Ca^2+ influx followed activation of the TRPA1 channel. Compounds inhibiting the [Ca^2+]i rise were considered hits for further investigation.
These cells were maintained in the growth medium recommended by the manufacturer supplemented with 100 μg/ml hygromycin to promote retention of the TRPA1 construct. After growing to near confluency, cells were plated at a density of ˜25,000 cells/well in 384 well CellBind plates (Corning) in the presence of 1 μg/ml tetracycline, and allowed to grow for 20-30 hrs. A nearly confluent monolayer resulted. Cells were then loaded with Ca^2+ dye: Fura-2/AM or Fluo4/AM was added to the wells to a final concentration of 2 μM or 1 μM, respectively, and incubated for 80 min or 60 min, respectively, at room temperature. […] Frames were acquired at a rate of 0.2 Hz. During the assay, the plates were continuously […], with pipette mixing of wells following addition of each reagent. For the screening assay, 13 μl of a diluted stock (at 50 μM) was added to each well for 2 minutes following the collection of a short (4 frame) baseline. […] Data was collected for ˜3 minutes following addition of AITC, where the fluorescent intensity (for Fluo4) and the F340/F380 ratio (for Fura-2) were proportional to the [Ca^2+]i. Negative controls consisted of HEK293/TREx TRPA1 cells exposed to AITC, but no compound. […] These controls defined a screening window, and “hits” were defined as those compounds inhibiting the fluorescence response by at least 40%. IC50 values were determined for compounds defined as “hits.” The Fluo4 cell-based fluorescence assay was used to determine the intracellular Ca^2+ concentration in the presence of varying drug concentration. […] Compounds were tested in triplicate at all concentrations. Standard software was used to fit IC50 curves.
Regarding `CCOc1ccc(C2NC(=S)NC(C)=C2C(=O)OC(C)C)cc1` (stereo not shown), the half-maximal inhibitory concentration (IC50) was greater than 10 µM.

As to `CC1=C(C(=O)N(C)C)C(c2ccccc2)NC(=S)N1` (stereo not shown), the IC50 was greater than 10 µM.

Turning to `CCOC(=O)C1=C(C)N(C)C(=S)NC1c1cccc(Cl)c1Cl` (stereo not shown), the concentration for half-maximal inhibition (IC50) is greater than 10 µM.

In the case of `CCOC(=O)C1=C(C)NC(=S)NC1c1ccccc1OC1CCCC1` (stereo not shown), the IC50 was greater than 10 µM.

Regarding `CCOC(=O)C1=C(c2ccccc2)NC(=S)NC1c1ccc(OCC)cc1` (stereo not shown), the half-inhibitory concentration (IC50) was greater than 10 µM.

Take `COc1ccc(C2NC(=S)N(C)C(C)=C2C(=O)Nc2ccccc2)cc1` (stereo not shown): the IC50 is greater than 10 µM.

Turning to `CCOC(=O)C1=C(C)NC(=S)NC1c1ccc(N(C)C)cc1` (stereo not shown), the IC50 was greater than 10 µM.

Consider `CCCOC(=O)C1=C(C)NC(=O)NC1c1cccc2ccccc12` (stereo not shown), for which the half-inhibitory concentration (IC50) is greater than 10 µM.

`COC(=O)C1=C(C)N(C)C(=O)NC1c1cc(Br)ccc1F` (stereo not shown): the IC50 is greater than 10 µM.

Regarding `C=CCOC(=O)C1=C(C)NC(=O)NC1c1c(Cl)cccc1Cl` (stereo not shown), the half-maximal inhibitory concentration (IC50) was greater than 10 µM.

As to `COC(=O)C1=C(C)N(C)C(=O)NC1c1cccc(Cl)c1Cl` (stereo not shown), the half-maximal inhibitory concentration (IC50) was greater than 10 µM.

In the case of `CC1=C(C(=O)OCCc2ccccc2)C(c2ccc(Cl)cc2)NC(=O)N1` (stereo not shown), the 50% inhibitory concentration (IC50) is no more than 5 µM.

Consider `CC1=C(C(=O)OCC(C)C)C(c2c(F)cccc2Cl)NC(=O)N1C` (stereo not shown), for which the 50% inhibitory concentration (IC50) was no more than 10 µM.

For `CCOC(=O)C1=C(CN2CCCCC2)NC(=O)NC1c1cc(C)ccc1C` (stereo not shown), the concentration for half-maximal inhibition (IC50) is greater than 10 µM.

`COC(=O)C1=C(CN2CCCC2)NC(=O)NC1c1cc(C)ccc1C` (stereo not shown): the IC50 is greater than 10 µM.

Turning to `CCOC(=O)C1=C(c2ccccc2)NC(=O)NC1c1ccccc1F` (stereo not shown), the IC50 is greater than 10 µM.

For the compound `CC1=C(C(=O)N2CCOCC2)C(c2cccc(Br)c2)NC(=O)N1` (stereo not shown), the IC50 was greater than 10 µM.

On to `CCOC(=O)C1=C(c2ccccc2)NC(=S)NC1c1ccccc1` (stereo not shown), for which the IC50 is no more than 10 µM.

Regarding `CC1=C(C(=O)Nc2ccccc2)C(c2ccccc2)NC(=S)N1` (stereo not shown), the IC50 is no less than 30 µM.

Regarding `CCN1C(=O)NC(c2cc(C)ccc2C)C(C(=O)OC)=C1C` (stereo not shown), the IC50 was greater than 10 µM.

Regarding `CCOC(=O)C1=C(C)NC(=O)NC1c1ccccc1C` (stereo not shown), the half-maximal inhibitory concentration (IC50) was greater than 10 µM.

For the compound `CC1=C(C(=O)OC2CCCC2)C(c2ccccc2Br)NC(=O)N1` (stereo not shown), the concentration for half-maximal inhibition (IC50) is greater than 10 µM.

`C=CCOC(=O)C1=C(C)NC(=O)NC1c1ccc(F)cc1` (stereo not shown): the IC50 was greater than 10 µM.

With `COC(=O)C1=C(C)NC(=S)NC1c1ccccc1C` (stereo not shown), the IC50 was no less than 30 µM.

As for `CCN(CC)C(=O)C1=C(C)NC(=S)NC1c1ccc(F)cc1` (stereo not shown), the IC50 is greater than 10 µM.

In the case of `CC1=C(C(=O)OC(C)C)C(c2ccc(Cl)cc2)NC(=S)N1` (stereo not shown), the IC50 was greater than 10 µM.

Consider `COC(=O)C1=C(C)N(C)C(=S)NC1c1ccc(Cl)cc1` (stereo not shown), for which the IC50 was no more than 10 µM.

Turning to `COC(=O)C1=C(C)NC(=O)NC1c1ccc2ccccc2c1` (stereo not shown), the concentration for half-maximal inhibition (IC50) was greater than 10 µM.

As to `CC1=C(C(=O)OCc2ccccc2)C(c2cccc(Cl)c2)NC(=O)N1` (stereo not shown), the IC50 is greater than 10 µM.

With `COC(=O)C1=C(C)N(C)C(=O)NC1c1c(F)cccc1Cl` (stereo not shown), the IC50 is greater than 10 µM.

In the case of `CCOC(=O)C1=C(C)NC(=S)NC1c1ccccc1` (stereo not shown), the IC50 was greater than 10 µM.

Regarding `CC1=C(C(=O)N2CCOCC2)C(c2cccc(Cl)c2)NC(=O)N1` (stereo not shown), the IC50 is greater than 10 µM.

As to `CC1=C(C(=O)Nc2ccccc2)C(c2ccc(F)cc2)NC(=S)N1` (stereo not shown), the IC50 was no less than 30 µM.

For the compound `CCC(C)OC(=O)C1=C(C)NC(=O)NC1c1ccc(C(F)(F)F)cc1` (stereo not shown), the IC50 was no more than 10 µM.

The test is the same for the next values; noted with them: Table 2; read-out: hTRPA1 Fluor IC50.
With `Cn1c(=O)c2c(ncn2CC(=O)NCC(c2ccccc2)N2CCCC2)n(C)c1=O` (stereo not shown) [Compound 321], the concentration for half-maximal inhibition (IC50) is greater than 10 µM.

For `CC(C)NC(=O)c1ccccc1NC(=O)Cn1cnc2c1c(=O)n(C)c(=O)n2C` [Compound 385], the IC50 is greater than 10 µM.

For the compound `Cn1c(=O)c2c(ncn2CC(=O)NC(c2ccccc2)c2cccs2)n(C)c1=O` (stereo not shown) [Compound 352], the IC50 was greater than 10 µM.

`Cn1c(=O)c2c(ncn2CC(=O)Nc2ccccc2Cc2ccccc2)n(C)c1=O` [Compound 258]: the IC50 is greater than 10 µM.

Consider `Cn1c(=O)c2c(ncn2CC(=O)Nc2ccc(F)c(F)c2F)n(C)c1=O` [Compound 276], for which the IC50 was greater than 10 µM.

In the case of `CC(C(=O)Nc1ccccc1)n1cnc2c1c(=O)n(C)c(=O)n2C` (stereo not shown) [Compound 302], the IC50 was greater than 10 µM.

On to `CN(CCCNC(=O)Cn1cnc2c1c(=O)n(C)c(=O)n2C)c1ccccc1` [Compound 322], for which the IC50 was greater than 10 µM.

In the case of `Cc1ccc(NC(=O)Cn2cnc3c2c(=O)n(C)c(=O)n3C)cc1` [Compound 259], the IC50 is greater than 10 µM.

With `CC(C(=O)Nc1cc(Cl)cc(Cl)c1)n1cnc2c1c(=O)n(C)c(=O)n2C` (stereo not shown) [Compound 314], the IC50 is no more than 10 µM.

Consider `CCc1sc(NC(=O)Cn2cnc3c2c(=O)n(C)c(=O)n3C)nc1-c1ccccc1` [Compound 381], for which the 50% inhibitory concentration (IC50) is no more than 10 µM.

`Cn1c(=O)c2c(ncn2CC(=O)NCC(c2ccco2)N2CCCC2)n(C)c1=O` (stereo not shown) [Compound 308]: the IC50 is greater than 10 µM.

Regarding `CC(CCc1ccccc1)NC(=O)Cn1cnc2c1c(=O)n(C)c(=O)n2C` (stereo not shown) [Compound 379], the IC50 is greater than 10 µM.

For `Cn1c(=O)c2c(ncn2CC(=O)NCc2ccccc2CN2CCOCC2)n(C)c1=O` [Compound 337], the IC50 is greater than 10 µM.

Consider `Cc1ccc(-c2csc(NC(=O)Cn3cnc4c3c(=O)n(C)c(=O)n4C)n2)cc1C` [Compound 270], for which the IC50 is greater than 10 µM.

In the case of `Cc1cc(Cl)ccc1NC(=O)Cn1cnc2c1c(=O)n(C)c(=O)n2C` [Compound 298], the IC50 is greater than 10 µM.

Take `Cn1c(=O)c2c(ncn2CC(=O)Nc2cc(F)cc(F)c2)n(C)c1=O` [Compound 386]: the IC50 was no more than 5 µM.

On to `Cn1c(=O)c2c(ncn2CC(=O)NCc2cccc(Cl)c2)n(C)c1=O` [Compound 286], for which the IC50 was greater than 10 µM.

Turning to `Cc1cc(C)c(NC(=O)Cn2cnc3c2c(=O)n(C)c(=O)n3C)c(C)c1` [Compound 375], the IC50 is greater than 10 µM.

As for `Cn1c(=O)c2c(ncn2CC(=O)Nc2ccccc2C(=O)NC2CC2)n(C)c1=O` [Compound 338], the 50% inhibitory concentration (IC50) was greater than 10 µM.

With `COc1ccc(CNC(=O)Cn2cnc3c2c(=O)n(C)c(=O)n3C)cc1` [Compound 364], the IC50 is greater than 10 µM.

Consider `Cc1ccc(NC(=O)NC(=O)Cn2cnc3c2c(=O)n(C)c(=O)n3C)c(C)c1` [Compound 292], for which the IC50 was greater than 10 µM.

As to `CN(Cc1ccccc1N1CCOCC1)C(=O)Cn1cnc2c1c(=O)n(C)c(=O)n2C` [Compound 342], the IC50 was greater than 10 µM.

Turning to `Cn1c(=O)c2c(ncn2CC(=O)Nc2ccc(Cl)cc2F)n(C)c1=O` [Compound 304], the IC50 is no more than 5 µM.

`Cn1c(=O)c2c(ncn2CC(=O)Nc2ccccc2Sc2ccccc2)n(C)c1=O` [Compound 384]: the IC50 was no more than 10 µM.

Turning to `Cn1c(=O)c2c(ncn2CC(=O)NC(CN2CCOCC2)c2ccccc2)n(C)c1=O` (stereo not shown) [Compound 357], the IC50 was greater than 10 µM.

Turning to `Cn1c(=O)c2c(ncn2CC(=O)N(Cc2ccccc2)CC(F)(F)F)n(C)c1=O` [Compound 288], the IC50 is greater than 10 µM.

On to `COc1cc2c(cc1NC(=O)Cn1cnc3c1c(=O)n(C)c(=O)n3C)oc1ccccc12` [Compound 253], for which the IC50 is greater than 10 µM.

With `Cn1c(=O)c2c(ncn2CC(=O)Nc2ccc(N3CCCCCC3)cc2)n(C)c1=O` [Compound 354], the 50% inhibitory concentration (IC50) is no more than 5 µM.

`Cn1c(=O)c2c(ncn2CC(=O)Nc2ccnn2C2CCCC2)n(C)c1=O` [Compound 340]: the IC50 was greater than 10 µM.

Turning to `Cc1ccc(NC(=O)Cn2cnc3c2c(=O)n(C)c(=O)n3C)c(Br)c1` [Compound 265], the IC50 was no less than 20 µM.
